Measurements taken from US10669270B2, “Amide-sulfamide derivatives, compositions, and uses related to CXCR4 inhibition” (Emory University, priority 2016, dated 2020).
“Also recorded” adds a separate entry of the source.

How the values were obtained:
xylene-induced ear edema = assay: Xylene-induced ear inflammation suppression test; assay type: in vivo, mice; settings: for inflammation suppression (mouse ear edema): 10 mg/kg i.p., 30 minutes after xylene, sacrificed 2 hours later; for histological analysis of ear: ear damage, edema, inflammatory cells
Procedure: Five mice per group were used to determine the effect of the CXCR4 modulators. The inner and outer surfaces of the right ear of each mouse were treated with a total 30 μL of xylene for the induction of ear edema, whereas the left ear was treated with 30 μL of saline, which was used as a non-inflammation control. The selected compounds were dissolved in 10% DMSO and 90% of 45% (2-hydroxypropyl)-β-cyclodextrin (CD) in PBS. Thirty minutes after the application of xylene, 14 selected compounds were administered intraperitoneally (i.p.) at 10 mg/kg. Control animals received corresponding i.p. injections of the vehicle. The animals were sacrificed 2 hours later, and two ear plugs (7 mm in diameter) were removed from both the treated ear and the untreated ear. Weights of treated and untreated ear plugs were measured. The difference in weight of the two ear plugs was taken as a measure of edematous response. The inflammation-suppression percentage was calculated by comparing the drug-treated group to the control group.

CXCR4 = molecular target: T1, CXCR4 (Homo sapiens, UniProt P61073); assay: Primary binding affinity screening (competition with biotinylated TN14003 on MDA-MB-231 cells)
T1 construct: endogenous in cells; host or cells: MDA-MB-231
T1 sequence (P61073 whole entry): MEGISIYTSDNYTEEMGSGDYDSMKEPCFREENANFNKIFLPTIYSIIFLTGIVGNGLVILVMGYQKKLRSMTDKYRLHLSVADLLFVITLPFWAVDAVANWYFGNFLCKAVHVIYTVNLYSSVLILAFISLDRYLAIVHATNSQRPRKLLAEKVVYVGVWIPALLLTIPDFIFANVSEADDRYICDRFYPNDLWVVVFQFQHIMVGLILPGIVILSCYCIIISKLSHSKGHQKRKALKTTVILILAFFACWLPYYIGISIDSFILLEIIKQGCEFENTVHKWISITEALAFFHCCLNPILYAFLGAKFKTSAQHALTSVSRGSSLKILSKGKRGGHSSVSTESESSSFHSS
Procedure: For binding affinity assay, 2×10^4 MDA-MB-231 cells in 300 μL of cell culture medium were seeded in an 8-well slide chamber 2 days before the experiments were conducted. Various concentrations of different compounds (1, 10, 100, or 1000 nM) were added to the separate wells and incubated for 10 minutes at room temperature, and then the cells were fixed in 4% ice-cold paraformaldehyde. The cells were rehydrated in phosphate-buffered saline (PBS). The slides were subsequently incubated for 30 minutes at room temperature with 0.05 μg/mL biotinylated TN14003, washed three times with PBS, and incubated in streptavidin-rhodamine (1:150 dilution; Jackson ImmunoResearch Laboratories, West Grove, Pa.) for 30 minutes at room temperature. Finally, the slides were washed with PBS and mounted in an anti-fade mounting solution (Molecular Probes, Eugene, Oreg.), and the samples were analyzed on a Nikon Eclipse E800 microscope.

MDA-MB-231 cells [1] = assay: Cytotoxicity screening, MDA-MB-231; assay type: cell-based; settings: at 10 μM
[2] = Preliminary pharmacokinetic study (plasma stability); assay type: in vitro ADME
[3] = system: CXCR4/CXCL12-mediated Akt phosphorylation; assay: Western blot analysis of Akt phosphorylation; assay type: cell-based
Procedure: Forty micrograms of protein were separated by SDS-PAGE and transferred to a PVDF membrane (Bio-Rad, Hercules, Calif., USA). The membrane was blocked for 30 min in a blocking solution (5% milk in Trisbuffered saline containing 0.1% Tween-20) and incubated overnight at 4° C. using monoclonal rabbit anti-phospho-Akt (Ser473) antibody (Cat No., 9271) and monoclonal rabbit anti-Akt (pan) antibody (cat No., 4691) at 1:500 in blocking solution. All antibodies were purchased from Cell Signaling Technology (Danvers, USA). The membrane was incubated for 1 hour with goat anti-rabbit IgG (H+L)-HRP conjugated secondary antibody at 1:10000 (Cat No. 1706515; Bio-rad, Hercules, USA) after washing. Enzyme-linked chemiluminescence was performed to detect hybridized protein bands.

MCF-10A cells = assay: Cytotoxicity screening, MCF-10A; assay type: cell-based; settings: at 10 μM
[4] = system: bacterial-infected J774A.1 macrophages; assay: TNF-α secretion by bacterial-infected macrophages; assay type: cell-based
MDA-MB-231 cells [5] = assay: Matrigel invasion assay; assay type: cell-based; settings: compounds 100 nM; CXCL12α 200 ng/mL; 22 hours
Procedure: Matrigel invasion assay was performed by using a Matrigel invasion chamber from Corning Biocoat (Bedford, Mass.). CXCL12α(200 ng/mL; R & D Systems, Minneapolis, Minn.) was added to the bottom chamber to induce the invasion of MDA-MB-231 cells through the Matrigel. The selected compounds (100 nM) or AMD3100 were added to the cells before the cells were seeded in the top chamber. The Matrigel invasion chamber was incubated for 22 hours in a humidified cell culture incubator. First, non-invading cells were removed from the top of the Matrigel with a cotton-tipped swab. Invading cells on the filter at the bottom of the Matrigel were fixed in methanol and stained with hematoxylin and eosin (H & E). The percent of invasion was determined by counting the H&E stained cellc.

Row | melting point [°C] | Compound | inflammation suppression (mouse ear edema) (xylene-induced ear edema) [%] | histological analysis of ear (xylene-induced ear edema) | Matrigel invasion inhibition compared with AMD3100 (MDA-MB-231 cells [5]) | other results
1 | 139 to 141 | O=C(NCc1ccc(CNS(=O)(=O)c2ccccc2)cc1)c1ccccc1 [IIIa, N-(4-(phenylsulfonamidomethyl)benzyl)benzamide] | 62 |  |  | potency compared with AMD3100 (CXCR4; EC relative to AMD3100): 1000 fold; EC (CXCR4; MDA-MB-231 cells, compounds at 1, 10, 100, or 1000 nM, biotinylated TN14003): 1 nM
2 | 137 to 139 | O=C(NCc1ccc(CNS(=O)(=O)c2ccc3c(c2)CCO3)cc1)c1cccnc1 [Ia, N-(4-((2,3-dihydrobenzofuran-5-sulfonamido)methyl)benzyl)nicotinamide] |  |  | better activity than AMD3100 | 
3 | 176 to 178 | Cc1cc(C(=O)NCc2ccc(CNS(=O)(=O)c3ccc4c(c3)CCO4)cc2)n(C)n1 [If, N-(4-((2,3-dihydrobenzofuran-5-sulfonamido)methyl)benzyl)-1,3-dimethyl-1H-pyrazole-5-carboxamide] |  |  | comparable inhibition to the reference drug AMD3100 | 
4 |  | O=C(NCc1ccc(CNS(=O)(=O)c2ccc(F)cc2F)cc1)c1cncnc1 [Ig, N-(4-((2,4-difluorophenylsulfonamido)methyl)benzyl)pyrimidine-5-carboxamide] | 56 | significantly attenuated the ear damage and decreased the number of inflammatory cells | better activity than AMD3100 | CXCR4/CXCL12-mediated phosphorylation of Akt [3]: blocked the phosphorylation of Akt; also recorded: blocked the CXCR4/CXCL12-mediated Akt phosphorylation in a dose-dependent manner; TNF-α secretion ([4]; result in words): significantly suppressed
5 |  | O=C(NCc1ccc(CNS(=O)(=O)c2ccc3c(c2)CCO3)cc1)c1scc2c1OCCO2 [Ik] |  |  | better activity than AMD3100 | 
6 |  | Cc1nnsc1C(=O)NCc1ccc(CNS(=O)(=O)c2ccc(F)c(F)c2)cc1 [Im, N-(4-((3,4-difluorophenylsulfonamido)methyl)benzyl)-4-methyl-1,2,3-thiadiazole-5-carboxamide] | 54 | significantly attenuated the ear damage and decreased the number of inflammatory cells | comparable inhibition to the reference drug AMD3100 | 

Row | Compound | melting point [°C] | inflammation suppression (mouse ear edema) (xylene-induced ear edema) [%] | histological analysis of ear (xylene-induced ear edema) | Matrigel invasion inhibition compared with AMD3100 (MDA-MB-231 cells [5]) | other results
7 | Cc1ccc(S(=O)(=O)NCc2ccc(CNC(=O)c3ccc(F)cc3)cc2)cc1 [IIj, 4-Fluoro-N-(4-((4-methylphenylsulfonamido)methyl)benzyl)benzamide] | 187 to 189 | 75 | attenuated ear edema and damage substantially |  | inhibition of proliferation (cytotoxicity) (MDA-MB-231 cells [1]): did not inhibit the proliferation; plasma stability [2]: favourable plasma stability; CXCR4/CXCL12-mediated phosphorylation of Akt [3]: blocked the CXCR4/CXCL12-mediated phosphorylation of Akt in a dose-dependent manner; inhibition of proliferation (cytotoxicity) (MCF-10A cells): did not inhibit the proliferation; attenuation of the amount of TNF-α [4]: 59%
